Experimental data as given in patent US9062124B2, “GIP-based mixed agonists for treatment of metabolic disorders and obesity” (priority 2008, dated 2015).
Where two headings read alike, the source gives them in different places. *1 amine or outer side, *2 acyl side, *3 side chain or, on linkers, in order; H or OH if unused. Where a SMILES comes first, the peptide text is derived from it. Bridges are numbered along the chain shown (N, C = ends). Where no end group is shown, it is not given here. Side-chain parts run from the residue outwards. [ ]: non-standard residue; d: D form. The star is where a group is joined. PEG 40 kDa = PEG (40 kDa) covalently attached to Cys; γGlu = O=C(O)[C@H](CCC(=O)[*:2])N[*:1]; Octanoyl = CCCCCCCC(=O)*; Abu = CC[C@H](N)C(=O)O; Aib = CC(C)(N)C(=O)O

Key:
GIP receptor = biological target: T1, GIP receptor (Homo sapiens, UniProt P48546); test: cAMP synthesis functional assay (firefly luciferase reporter in HEK293 cells), GIP receptor; format: cell-based
T1 construct: expressed in transfected cells; host or cells: HEK293
T1 sequence (P48546 22-466): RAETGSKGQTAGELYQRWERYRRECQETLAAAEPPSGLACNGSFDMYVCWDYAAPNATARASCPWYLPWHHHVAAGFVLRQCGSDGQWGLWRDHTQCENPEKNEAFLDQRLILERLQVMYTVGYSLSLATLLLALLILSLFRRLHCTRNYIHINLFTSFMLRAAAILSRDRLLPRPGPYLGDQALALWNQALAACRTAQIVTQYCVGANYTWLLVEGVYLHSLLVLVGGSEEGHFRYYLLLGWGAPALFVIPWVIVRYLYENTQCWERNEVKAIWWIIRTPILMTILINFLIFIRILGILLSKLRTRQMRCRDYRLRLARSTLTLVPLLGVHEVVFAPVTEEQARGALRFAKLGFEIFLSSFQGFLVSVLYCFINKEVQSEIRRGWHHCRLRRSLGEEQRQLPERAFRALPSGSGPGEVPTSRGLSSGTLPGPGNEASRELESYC

glucagon receptor = biological target: T2, glucagon receptor (Homo sapiens, UniProt P47871); test: cAMP synthesis functional assay (firefly luciferase reporter in HEK293 cells), glucagon receptor; format: cell-based
T2 construct: expressed in transfected cells; host or cells: HEK293
T2 sequence (P47871 26-477): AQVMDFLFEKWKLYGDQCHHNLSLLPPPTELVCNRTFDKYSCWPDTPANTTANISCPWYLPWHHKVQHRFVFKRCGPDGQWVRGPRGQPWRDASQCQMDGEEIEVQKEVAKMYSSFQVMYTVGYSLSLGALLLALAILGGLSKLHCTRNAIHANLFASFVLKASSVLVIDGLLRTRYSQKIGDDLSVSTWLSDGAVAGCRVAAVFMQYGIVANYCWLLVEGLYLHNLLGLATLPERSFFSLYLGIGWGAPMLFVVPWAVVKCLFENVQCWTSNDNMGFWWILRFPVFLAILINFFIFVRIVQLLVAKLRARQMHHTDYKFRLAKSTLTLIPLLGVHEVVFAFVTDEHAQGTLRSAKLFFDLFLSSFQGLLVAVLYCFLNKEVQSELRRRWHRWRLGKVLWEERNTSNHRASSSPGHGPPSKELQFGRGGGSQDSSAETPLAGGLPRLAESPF

[1] = test system: glucagon receptor, GLP-1 receptor or GIP receptor; test: Agonist profile across receptors assigned from the cAMP reporter assay data; format: cell-based; conditions: assigned from the in vitro EC50 data of Tables 1-4
GLP-1 receptor = biological target: T3, GLP-1 receptor (Homo sapiens, UniProt P43220); test: cAMP synthesis functional assay (firefly luciferase reporter in HEK293 cells), GLP-1 receptor; format: cell-based
T3 construct: expressed in transfected cells; host or cells: HEK293
T3 sequence (P43220 24-463, species assumed): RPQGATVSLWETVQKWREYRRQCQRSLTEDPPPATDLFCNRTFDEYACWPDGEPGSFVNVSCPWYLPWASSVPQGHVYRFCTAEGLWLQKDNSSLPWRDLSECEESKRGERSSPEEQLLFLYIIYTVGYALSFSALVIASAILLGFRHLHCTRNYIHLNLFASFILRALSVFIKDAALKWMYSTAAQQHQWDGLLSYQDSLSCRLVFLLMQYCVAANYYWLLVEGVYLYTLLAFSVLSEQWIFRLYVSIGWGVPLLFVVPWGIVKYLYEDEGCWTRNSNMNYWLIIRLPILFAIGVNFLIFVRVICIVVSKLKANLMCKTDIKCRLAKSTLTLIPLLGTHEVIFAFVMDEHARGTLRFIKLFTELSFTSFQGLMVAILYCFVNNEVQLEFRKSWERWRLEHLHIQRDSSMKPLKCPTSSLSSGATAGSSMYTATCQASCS

[2] = Body weight of mice after peptide injection; conditions: Example 41; DIO mice, subcutaneous daily for 7 days, 10 nmol/kg, Day 7
[3] = relative to the standard (Std.) EC50 of the same run
[4] = Table 4, relative to the native hormone
[5] = Table 1, relative to the native hormone of the indicated receptor

CCCCCCCC(=O)NCCCC[C@H](NC(=O)[C@H](CO)NC(=O)[C@@H]1CCCN1C(=O)[C@@H]1CCCN1C(=O)[C@@H]1CCCN1C(=O)[C@H](C)NC(=O)CNC(=O)[C@H](CO)NC(=O)[C@H](CO)NC(=O)[C@@H]1CCCN1C(=O)CNC(=O)CNC(=O)[C@H](C)NC(=O)[C@H](CC(C)C)NC(=O)[C@H](CC(C)C)NC(=O)[C@H](Cc1c[nH]c2ccccc12)NC(=O)[C@H](CC(N)=O)NC(=O)[C@@H](NC(=O)[C@H](Cc1ccccc1)NC(=O)[C@H](CCC(=O)O)NC(=O)C(C)(C)NC(=O)[C@H](C)NC(=O)[C@H](C)NC(=O)[C@H](CCC(N)=O)NC(=O)[C@H](CCCCN)NC(=O)[C@H](CC(=O)O)NC(=O)[C@H](CC(C)C)NC(=O)[C@H](Cc1ccc(O)cc1)NC(=O)[C@@H](NC(=O)[C@H](CO)NC(=O)[C@H](Cc1ccc(O)cc1)NC(=O)[C@H](CC(=O)O)NC(=O)[C@H](CO)NC(=O)[C@@H](NC(=O)[C@H](Cc1ccccc1)NC(=O)[C@@H](NC(=O)CNC(=O)[C@H](CCC(N)=O)NC(=O)C(C)(C)NC(=O)[C@@H](N)Cc1ccc(O)cc1)[C@@H](C)O)[C@@H](C)O)[C@@H](C)CC)C(C)C)C(N)=O [mt-323] (H-Y[Aib]QGTFTSDYSIYLDKQAA[Aib]EFVNWLLAGGPSSGAPPPSK(Octanoyl)-NH2; N-terminus assumed)
GIP Receptor relative activity (GIP receptor; [3]): 122.62% | EC50 (glucagon receptor; Glucagon Receptor EC50, cAMP luciferase reporter assay as in Example 16): 0.217 nM | Glucagon Receptor relative activity (glucagon receptor; [3]): 39.00% | receptor activity profile (glucagon / GLP-1 / GIP agonism) [1]: exhibited activity at the GIP, GLP-1, and glucagon receptors | EC50 (GLP-1 receptor; GLP-1 Receptor EC50, cAMP luciferase reporter assay as in Example 16): 0.0571 nM | GLP-1 Receptor relative activity (GLP-1 receptor; [3]): 35.55%

CC[C@H](C)[C@H](NC(=O)[C@H](CO)NC(=O)[C@H](Cc1ccc(O)cc1)NC(=O)[C@H](CC(=O)O)NC(=O)[C@H](CO)NC(=O)[C@H](CO)NC(=O)[C@H](Cc1ccccc1)NC(=O)[C@@H](NC(=O)CNC(=O)[C@H](CCC(N)=O)NC(=O)C(C)(C)NC(=O)[C@@H](N)Cc1ccc(O)cc1)[C@@H](C)O)C(=O)N[C@@H](Cc1ccc(O)cc1)C(=O)N[C@@H](CC(C)C)C(=O)N[C@@H](CC(=O)O)C(=O)N[C@@H](CCCCN)C(=O)N[C@@H](CCC(N)=O)C(=O)N[C@@H](C)C(=O)N[C@@H](C)C(=O)NC(C)(C)C(=O)N[C@@H](CCC(=O)O)C(=O)N[C@@H](Cc1ccccc1)C(=O)N[C@H](C(=O)N[C@@H](CC(N)=O)C(=O)N[C@@H](Cc1c[nH]c2ccccc12)C(=O)N[C@@H](CC(C)C)C(=O)N[C@@H](CC(C)C)C(=O)N[C@@H](C)C(=O)NCC(=O)NCC(=O)N1CCC[C@H]1C(=O)N[C@@H](CO)C(=O)N[C@@H](CO)C(=O)NCC(=O)N[C@@H](C)C(=O)N1CCC[C@H]1C(=O)N1CCC[C@H]1C(=O)N1CCC[C@H]1C(=O)N[C@@H](CO)C(=O)N[C@@H](CS)C(N)=O)C(C)C [mt-324] (H-Y[Aib]QGTFSSDYSIYLDKQAA[Aib]EFVNWLLAGGPSSGAPPPSC-NH2; N-terminus assumed)
GIP Receptor relative activity (GIP receptor; [3]): 30.23% | Glucagon Receptor relative activity (glucagon receptor; [3]): 6.41% | receptor activity profile (glucagon / GLP-1 / GIP agonism) [1]: exhibited activity at the GIP, GLP-1, and glucagon receptors | GLP-1 Receptor relative activity (GLP-1 receptor; [3]): 9.68%

CC[C@H](NC(=O)[C@H](Cc1ccccc1)NC(=O)[C@@H](NC(=O)CNC(=O)[C@H](CCC(N)=O)NC(=O)C(C)(C)NC(=O)[C@@H](N)Cc1ccc(O)cc1)[C@@H](C)O)C(=O)N[C@@H](CO)C(=O)N[C@@H](CC(=O)O)C(=O)N[C@@H](Cc1ccc(O)cc1)C(=O)N[C@@H](CO)C(=O)N[C@H](C(=O)N[C@@H](Cc1ccc(O)cc1)C(=O)N[C@@H](CC(C)C)C(=O)N[C@@H](CC(=O)O)C(=O)N[C@@H](CCCCN)C(=O)N[C@@H](CCC(N)=O)C(=O)N[C@@H](C)C(=O)N[C@@H](C)C(=O)NC(C)(C)C(=O)N[C@@H](CCC(=O)O)C(=O)N[C@@H](Cc1ccccc1)C(=O)N[C@H](C(=O)N[C@@H](CC(N)=O)C(=O)N[C@@H](Cc1c[nH]c2ccccc12)C(=O)N[C@@H](CC(C)C)C(=O)N[C@@H](CC(C)C)C(=O)N[C@@H](C)C(=O)NCC(=O)NCC(=O)N1CCC[C@H]1C(=O)N[C@@H](CO)C(=O)N[C@@H](CO)C(=O)NCC(=O)N[C@@H](C)C(=O)N1CCC[C@H]1C(=O)N1CCC[C@H]1C(=O)N1CCC[C@H]1C(=O)N[C@@H](CO)C(=O)N[C@@H](CS)C(N)=O)C(C)C)[C@@H](C)CC [mt-325] (H-Y[Aib]QGTF[Abu]SDYSIYLDKQAA[Aib]EFVNWLLAGGPSSGAPPPSC-NH2; N-terminus assumed)
GIP Receptor relative activity (GIP receptor; [3]): 111.43% | Glucagon Receptor relative activity (glucagon receptor; [3]): 86.45% | receptor activity profile (glucagon / GLP-1 / GIP agonism) [1]: exhibited activity at the glucagon and GIP receptors, but not at the GLP-1 receptor | GLP-1 Receptor relative activity (GLP-1 receptor; [3]): 0.83%

CCCCCCCCCCCCCCCC(=O)N[C@@H](CCC(=O)N[C@@H](CCC(=O)NCCCC[C@H](NC(=O)[C@H](CO)NC(=O)[C@@H]1CCCN1C(=O)[C@@H]1CCCN1C(=O)[C@@H]1CCCN1C(=O)[C@H](C)NC(=O)CNC(=O)[C@H](CO)NC(=O)[C@H](CO)NC(=O)[C@@H]1CCCN1C(=O)CNC(=O)CNC(=O)[C@H](C)NC(=O)[C@H](CC(C)C)NC(=O)[C@H](CC(C)C)NC(=O)[C@H](Cc1c[nH]c2ccccc12)NC(=O)[C@H](CC(N)=O)NC(=O)[C@@H](NC(=O)[C@H](Cc1ccccc1)NC(=O)[C@H](CCC(=O)O)NC(=O)C(C)(C)NC(=O)[C@H](C)NC(=O)[C@H](C)NC(=O)[C@H](CCC(N)=O)NC(=O)[C@H](CCCCN)NC(=O)[C@H](CC(=O)O)NC(=O)[C@H](CC(C)C)NC(=O)[C@H](Cc1ccc(O)cc1)NC(=O)[C@@H](NC(=O)[C@H](CO)NC(=O)[C@H](Cc1ccc(O)cc1)NC(=O)[C@H](CC(=O)O)NC(=O)[C@H](CO)NC(=O)[C@@H](NC(=O)[C@H](Cc1ccccc1)NC(=O)[C@@H](NC(=O)CNC(=O)[C@H](CCC(=O)O)NC(=O)C(C)(C)NC(=O)[C@@H](N)Cc1ccc(O)cc1)[C@@H](C)O)[C@@H](C)O)[C@@H](C)CC)C(C)C)C(N)=O)C(=O)O)C(=O)O [mt-367]
total change in body weight (weight loss, decrease) [2]: ~18% | EC50 (GIP receptor; GIP Receptor EC50, nM, Table 4): 0.0014 nM | GIP Receptor relative activity (GIP receptor; [4]): 202.82% | % Relative activity at the Receptor for GIP (GIP receptor; Table 8): 202.82% | Glucagon Receptor relative activity (glucagon receptor; [4]): 4.11% | % Relative activity at the Receptor for Glucagon (glucagon receptor; Table 8): 4.11% | GLP-1 Receptor relative activity (GLP-1 receptor; [4]): 405.94% | % Relative activity at the Receptor for GLP-1 (GLP-1 receptor; Table 8): 405.94%

mt-179: glucagon analog peptide, C-terminal amide; called GIP/glucagon co-agonist and triagonist (Y[Aib]QGTFISDYSIYLDEQAAKEFVC(PEG 40 kDa)WLLAG-NH2; lactam 16-20)
GIP Receptor relative activity (GIP receptor; [5]): 3.74% | EC50 (GIP receptor; read-out: GIP Receptor EC50, Table 1): 0.473 nM | Glucagon Receptor relative activity (glucagon receptor; [5]): 2.92% | EC50 (glucagon receptor; read-out: Glucagon Receptor EC50, Table 1): 1.27 nM | receptor activity profile (glucagon / GLP-1 / GIP agonism) [1]: exemplary GLP-1/GIP/glucagon triagonist peptides | GLP-1 Receptor relative activity (GLP-1 receptor; [5]): 7.50% | EC50 (GLP-1 receptor; read-out: GLP-1 Receptor EC50, Table 1): 0.26 nM

mt-249: linear peptide lacking a lactam bridge, AIB at position 16 and/or 20 (Y[Aib]QGTFTSDYSIYLD[Aib]QAAQEFVNWLLAGGPSSGAPPPSC(PEG 40 kDa)-NH2)
GIP Receptor relative activity (GIP receptor; Table 2): 0.63% | EC50 (GIP receptor; read-out: GIP Receptor EC50, Table 2): 2.71 nM | Glucagon Receptor relative activity (glucagon receptor; Table 2): 0.59% | EC50 (glucagon receptor; read-out: Glucagon Receptor EC50, Table 2, linear peptides with AIB at position 16 and/or 20): 10.3 nM | receptor activity profile (glucagon / GLP-1 / GIP agonism) [1]: exhibited activities of glucagon/GLP-1/GIP triagonists | GLP-1 Receptor relative activity (GLP-1 receptor; Table 2): 2.56% | EC50 (GLP-1 receptor; read-out: GLP-1 Receptor EC50, Table 2): 0.391 nM

mt-295: linear peptide of Table 3 (Y[Aib]EGTFTSDYSIYLDKQAA[Aib]EFVNWLLAGGPSSGAPPPSC(PEG 40 kDa)-NH2)
EC50 (GIP receptor; read-out: GIP Receptor EC50, cAMP luciferase reporter assay as in Example 16): 0.0577 nM | GIP Receptor relative activity (GIP receptor; [3]): 19.06% | Glucagon Receptor relative activity (glucagon receptor; [3]): 0.03% | receptor activity profile (glucagon / GLP-1 / GIP agonism) [1]: exhibited activity at the GIP, GLP-1, and glucagon receptors | EC50 (GLP-1 receptor; read-out: GLP-1 Receptor EC50, cAMP luciferase reporter assay as in Example 16): 0.114 nM | GLP-1 Receptor relative activity (GLP-1 receptor; [3]): 6.74%

mt-384: glucagon analog: Tyr1, AIB2, Lys10(γGlu-γGlu-C16), Ile12, Lys16, Gln17, Ala18, AIB20, Glu21, Asn24, Leu27, Ala28, Gly29, GPSSGAPPPS, amide (Y[Aib]QGTFTSDK([γGlu-γGlu-C16])SIYLDKQAA[Aib]EFVNWLLAGGPSSGAPPPS-NH2)
total change in body weight (weight loss, decrease) [2]: ~21%

mt-385: same structure as Peptide mt-384 except that Thr at position 7 was changed to an Ile (Y[Aib]QGTFISDK([γGlu-γGlu-C16])SIYLDKQAA[Aib]EFVNWLLAGGPSSGAPPPS-NH2)
total change in body weight (weight loss, decrease) [2]: ~15%
